Literature values in US20230210769A1, “METHODS OF TREATMENT USING NICLOSAMIDE” (priority 2020, published 2023).

Legend:
[1] = system: SARS-CoV-2 (a.k.a. 2019-nCoV)
[2] = system: SARS-CoV, influenza virus, MERS-CoV, ZIKV, JEV, HCV, EBOV, HRVs, CHIKV, HAdV, EBV

For `O=C(Nc1ccc([N+](=O)[O-])cc1Cl)c1cc(Cl)ccc1O` [niclosamide, 5-chloro-N-(2-chloro-4-nitrophenyl)-2-hydroxybenzamide], the “anti-viral effects against SARS-CoV-2” value [1] is listed as “anti-viral effects” and the “anti-viral effects in vitro against various viral infections” value [2] is listed as “anti-viral effects in vitro”.
